The subject of the assay is T-47D. Briefly: Caspase cascade activation assay (N-(Ac-DEVD)-N'-ethoxycarbonyl-R110 fluorogenic substrate) in T-47D cells. It counts as cell-based, Human. Particulars: 24 h incubation; for Caspase Activity Ratio: ratio of net RFU (T=3 h) to that of control samples, 0.16 to 10 μM final; for EC50: Homo sapiens, T47D, sigmoidal dose-response calculation, read-out: Caspase Potency EC50. As for the experimental part: Human breast cancer cell lines T-47D was grown according to media component mixtures designated by American Type Culture Collection+10% FCS (mvitrogen Corporation), in a 5% CO2-95% humidity incubator at 37° C. T-47D and ZR-75-1 cells were maintained at a cell density between 30 and 80% confluency and for HL-60 at a cell density of 0.1 to 0.6×10^6 cells/mL. Cells were harvested at 600×g and resuspended at 0.65×10^6 cells/mL into appropriate media+10% FCS. An aliquot of 45 μL of cells was added to a well of a 96-well microtiter plate containing 5 μL of a 10% DMSO in RPMI-1640 media solution containing 1.6 to 100 μM of 1,3-dimethyl-N-(4-methoxyphenyl)-1H-pyrazolo[3,4-b]quinolin-4-amine or other test compound (0.16 to 10 μM final). An aliquot of 45 μL of cells was added to a well of a 96-well microtiter plate containing 5 μL of a 10% DMSO in RPMI-1640 media solution without test compound as the control sample. The samples were mixed by agitation and then incubated at 37° C. for 24 h in a 5% CO2-95% humidity incubator. After incubation, the samples were removed from the incubator and 50 μL of a solution containing 20 μM of N-(Ac-DEVD)-N′-ethoxycarbonyl-R110 fluorogenic substrate (SEQ ID NO:1) (Cytovia, Inc.; U.S. Pat. No. 6,335,429), 20% sucrose (Sigma), 20 mM DTT (Sigma), 200 mM NaCl (Sigma), 40 mM Na PIPES buffer pH 7.2 (Sigma), and 500 μg/mL lysolecithin (Calbiochem) was added. The samples were mixed by agitation and incubated at room temperature. Using a fluorescent plate reader (Model 1420 Wallac Instruments), an initial reading (T=0) was made about 1-2 min after addition of the substrate solution, employing excitation at 485 nm and emission at 530 nm, to determine the background fluorescence of the control sample. After about 3 h of incubation, the samples were read for fluorescence as above (T=3 h).
The Relative Fluorescence Unit values (RFU) were used to calculate the sample readings as follows: RFU(T=3h)−Control RFU(T=0)=Net RFU(T=3h)
The activity of caspase cascade activation was determined by the ratio of the net RFU value for 1,3-dimethyl-N-(4-methoxyphenyl)-1H-pyrazolo[3,4-b]quinolin-4-amine to that of control samples. The EC50 (nM) was determined by a sigmoidal dose-response calculation (Prism 2.0, GraphPad Software Inc.).

The source of these data is patent publication US20070253957A1, “Substituted N-Aryl-1H-Pyrazolo[3,4-B]Quinolin-4-Amines and Analogs as Activators of Caspases and Inducers of Apoptosis” (Cytovia, Inc., priority 2004, published 2007).

Structures are written as SMILES.

A word on the EC50: it is the midpoint of the concentration-response curve.

Consider `CC(=O)c1cccc(Nc2c3ccccc3nc3c2c(C)nn3C)c1` [Example 5, N-(3-Acetylphenyl)-1,3-dimethyl-1H-pyrazolo[3,4-b]quinolin-4-amine], for which the “Caspase Activity Ratio” value was found to be 1.0 and the EC50 was above 10 µM.
Turning to `CC(=O)c1cccc(Nc2c3c(nc4ccccc24)CCC3)c1` [N-(3-Acetylphenyl)-2,3-dihydro-1H-cyclopenta[b]quinolin-9-amine], the “Caspase Activity Ratio” value came out at 8.8 and the EC50 is 0.304 µM.
Taken in the same sequence, the figures for `COC(=O)c1cccc(Nc2c3c(nc4ccccc24)CCC3)c1` [N-(3-(Methoxycarbonyl)phenyl)-2,3-dihydro-1H-cyclopenta[b]quinolin-9-amine] were 5.6 and 3.04 µM.
Taken in the same sequence, the figures for `Cc1nn(C)c2nc3ccccc3c(Nc3ccc(S(C)(=O)=O)cc3)c12` [Example 34, 1,3-Dimethyl-N-(4-methylsulfonylphenyl)-1H-pyrazolo[3,4-b]quinolin-4-amine] were 1.1 and above 10 µM.
Taken in the same sequence, the figures for `CCOC(=O)c1ccc(Nc2c3c(nc4ccccc24)CCC3)cc1` [N-(4-(Ethoxycarbonyl)phenyl)-2,3-dihydro-1H-cyclopenta[b]quinolin-9-amine] were 9.5 and 1.18 µM.
Consider `Cc1nn(C)c2nc3ccccc3c(Nc3ccc(C(=O)C(F)(F)F)cc3)c12` [Example 48, 1,3-Dimethyl-N-(4-(2,2,2-trifluoroacetyl)phenyl)-1H-pyrazolo[3,4-b]quinolin-4-amine], for which the “Caspase Activity Ratio” value is 1.1 and the EC50 is above 10 µM.
Taken in the same sequence, the figures for `CCOC(=O)c1ccc(N(C)c2c3c(nc4ccccc24)CCC3)cc1` [Example 17, N-(4-(Ethoxycarbonyl)phenyl)-N-methyl-2,3-dihydro-1H-cyclopenta[b]quinolin-9-amine] were 9.3 and 5.12 µM.
Taken in the same sequence, the figures for `Cc1nn(C)c2nc3ccccc3c(Nc3ccc(N=[N+]=[N-])cc3)c12` [Example 46, N-(4-Azidophenyl)-1,3-dimethyl-1H-pyrazolo[3,4-b]quinolin-4-amine] were 1.1 and above 10 µM.
Taken in the same sequence, the figures for `CC(=O)c1ccc(Oc2c3ccccc3nc3c2c(C)nn3C)cc1` [Example 13, 4-(4-Acetylphenoxy)-1,3-dimethyl-1H-pyrazolo[3,4-b]quinoline] were 7.5 and 4.32 µM.
With `CC(C)C(=O)c1cccc(N(C)c2c3c(nc4ccccc24)CCC3)c1` [Example 16, N-(3-Isobutyrylphenyl)-N-methyl-2,3-dihydro-1H-cyclopenta[b]quinolin-9-amine], the “Caspase Activity Ratio” value was 1.1 and the EC50 was above 10 µM.
Taken in the same sequence, the figures for `Cc1nn(C)c2nc3ccccc3c(Nc3ccc(C(N)=O)cc3)c12` [Example 6, N-(4-Carbamoylphenyl)-1,3-dimethyl-1H-pyrazolo[3,4-b]quinolin-4-amine] were 1.0 and above 10 µM.
On to `CCc1ccccc1Nc1c2c(nc3ccccc13)CCC2` [N-(2-Ethylphenyl)-2,3-dihydro-1H-cyclopenta[b]quinolin-9-amine], for which the “Caspase Activity Ratio” value came to 6.5 and the EC50 is 2.96 µM.
Turning to `COC(=O)c1ccc(Nc2c3c(nc4ccccc24)CCC3)cc1` [N-(4-(Methoxycarbonyl)phenyl)-2,3-dihydro-1H-cyclopenta[b]quinolin-9-amine], the “Caspase Activity Ratio” value is given as 4.8 and the EC50 is 0.34 µM.
Turning to `Cc1nn(C)c2nc3ccccc3c(Nc3ccc([S+](C)[O-])cc3)c12` (stereo not drawn) [Example 39, 1,3-Dimethyl-N-(4-methylsulfinylphenyl)-1H-pyrazolo[3,4-b]quinolin-4-amine], the “Caspase Activity Ratio” value was 1.1 and the EC50 was above 10 µM.
In the case of `CC(=O)c1ccc(Nc2c3ccccc3nc3c2cnn3C)cc1` [Example 18, N-(4-Acetylphenyl)-1-methyl-1H-pyrazolo[3,4-b]quinolin-4-amine], the “Caspase Activity Ratio” value was 8.5 and the EC50 is 0.841 µM.
Taken in the same sequence, the figures for `Cc1nn(C)c2nc3ccccc3c(Nc3ccc(C(=O)O)cc3)c12` [Example 47, N-(4-Carboxylphenyl)-1,3-dimethyl-1H-pyrazolo[3,4-b]quinolin-4-amine] were 1.1 and above 10 µM.
Taken in the same sequence, the figures for `COc1ccc(Nc2c3ccccc3nc3c2c(C)nn3C)cn1` [Example 7, 1,3-Dimethyl-N-(6-methoxypyridin-3-yl)-1H-pyrazolo[3,4-b]quinolin-4-amine] were 1.0 and above 10 µM.
For `CC(=O)c1ccc(Nc2c3ccccc3nc3c2c(C)nn3C)cc1` [N-(4-Acetylphenyl)-1,3-dimethyl-1H-pyrazolo[3,4-b]quinolin-4-amine], the “Caspase Activity Ratio” value is 4.2 and the EC50 is 0.314 µM.
Taken in the same sequence, the figures for `COc1cccc(Nc2c3ccccc3nc3c2c(C)nn3C)c1` [Example 8, 1,3-Dimethyl-N-(3-methoxyphenyl)-1H-pyrazolo[3,4-b]quinolin-4-amine] were 3.9 and 5.83 µM.
On to `Cc1nn(C)c2nc3ccccc3c(Nc3ccc(N)cc3)c12.Cl` [Example 45, N-(4-Aminophenyl)-1,3-dimethyl-1H-pyrazolo[3,4-b]quinolin-4-amine hydrochloride], for which the “Caspase Activity Ratio” value is given as 1.1 and the EC50 was above 10 µM.
Consider `COc1ccc(Sc2c3ccccc3nc3c2c(C)nn3C)cc1` [Example 12, 4-(4-Methoxyphenylthio)-1,3-dimethyl-1H-pyrazolo[3,4-b]quinoline], for which the “Caspase Activity Ratio” value came out at 9.3 and the concentration giving a half-maximal response (EC50) is 4.23 µM.
Taken in the same sequence, the figures for `CC(=O)Nc1ccc(Nc2c3ccccc3nc3c2c(C)nn3C)cc1` [Example 32, N-(4-Acetamidophenyl)-1,3-dimethyl-1H-pyrazolo[3,4-b]quinolin-4-amine] were 1.1 and above 10 µM.
Taken in the same sequence, the figures for `Cc1nn(C)c2nc3ccccc3c(Nc3ccc(C(=O)C(C)C)cc3)c12` [Example 44, N-(4-Isobutyrylphenyl)-1,3-dimethyl-1H-pyrazolo[3,4-b]quinolin-4-amine] were 4.3 and 0.248 µM.
For the compound `CCc1ccc(Nc2c3ccccc3nc3c2c(C)nn3C)cc1` [Example 22, N-(4-Ethylphenyl)-1,3-dimethyl-1H-pyrazolo[3,4-b]quinolin-4-amine], the “Caspase Activity Ratio” value was found to be 1.1 and the EC50 was above 10 µM.
Taken in the same sequence, the figures for `Cc1ccc2nc3c(c(Nc4cccc(O)c4)c2c1)CCC3` [N-(3-Hydroxyphenyl)-7-methyl-2,3-dihydro-1H-cyclopenta[b]quinolin-9-amine] were 3.7 and 5.53 µM.
Consider `COc1ccccc1Nc1c2c(nc3ccccc13)CCC2` [N-(2-Methoxyphenyl)-2,3-dihydro-1H-cyclopenta[b]quinolin-9-amine], for which the “Caspase Activity Ratio” value is 7.5 and the EC50 was 2.45 µM.
Taken in the same sequence, the figures for `CC(=O)c1ccc(Nc2c3ccccc3nc3c2c(C(C)C)nn3C)cc1` [Example 21, N-(4-Acetylphenyl)-1-methyl-3-isopropyl-1H-pyrazolo[3,4-b]quinolin-4-amine] were 1.1 and above 10 µM.
